Laboratory results published in patent US10335409B2 (priority 2012, dated 2019).
Read-outs that look alike come from different tables or passages of the source.

How the values were obtained:
Format in all cases: cell-based, hepatitis C virus
[1] = tested on: genotype 1a (H77) stable HCV replicon in Huh-7-derived cells; experiment: Stable subgenomic HCV replicon EC50, genotype 1a (Renilla luciferase); settings: Hepatitis C virus, stable replicon genotype 1a, 72 h, read-out: EC50 1A RLUC
Outline: (§1)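 Compounds, three-fold diluted, were applied to Huh-7-derived cells harbouring luciferase replicons (genotype 1a H77, 1b Con1, 2a JFH-1, 4a ED43, with strain-specific adaptive mutations). Seventy-two hours later, intracellular replication was gauged by Renilla luciferase activity and EC50 derived by regression.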

[2] = tested on: genotype 1b (Con1) stable HCV replicon in Huh-7-derived cells; experiment: Stable subgenomic HCV replicon EC50, genotype 1b (Renilla luciferase); settings: Hepatitis C virus, stable replicon genotype 1b, 72 h, read-out: EC50 1B RLUC
Outline: as §1

[3] = tested on: genotype 2a (JFH-1) stable HCV replicon in Huh-7-derived cells; experiment: Stable subgenomic HCV replicon EC50, genotype 2a (Renilla luciferase); settings: Hepatitis C virus, stable replicon genotype 2a, 72 h, read-out: EC50 2A RLUC
Outline: as §1

[4] = tested on: genotype 3a (S52) stable HCV replicon in Huh-7-derived cells; experiment: Stable subgenomic HCV replicon EC50, genotype 3a (Renilla luciferase); settings: Hepatitis C virus, 72 h, read-out: EC50 3A RLUC
[5] = tested on: genotype 4a (ED43) stable HCV replicon in Huh-7-derived cells; experiment: Stable subgenomic HCV replicon EC50, genotype 4a (Renilla luciferase); settings: Hepatitis C virus, 72 h, read-out: EC50 4A RLUC
Outline: as §1

[6] = tested on: genotype 3a (S52) wild type transient HCV replicon in Huh-7-derived cells; experiment: Transient-transfected HCV replicon EC50, genotype 3a wild type; settings: Hepatitis C virus, 72 h, read-out: EC50 3A WT
[7] = tested on: genotype 1a (H77) wild type transient HCV replicon in Huh-7-derived cells; experiment: Transient-transfected HCV replicon EC50, genotype 1a wild type; settings: Hepatitis C virus, 72 h, read-out: EC50 1A WT
[8] = tested on: genotype 1a NS3/4a protease inhibitor resistant variant R155K transient HCV replicon in Huh-7-derived cells; experiment: Transient-transfected HCV replicon EC50, genotype 1a R155K; settings: Hepatitis C virus, 72 h, read-out: EC50 1A R155K, transient-transfected replicon genotype 1a R155K resistant variant, 72 h
[9] = tested on: genotype 1b (Con1) wild type transient HCV replicon in Huh-7-derived cells; experiment: Transient-transfected HCV replicon EC50, genotype 1b wild type; settings: Hepatitis C virus, 72 h, read-out: EC50 1B WT
[10] = tested on: genotype 1b NS3/4a protease inhibitor resistant variant D168A transient HCV replicon in Huh-7-derived cells; experiment: Transient-transfected HCV replicon EC50, genotype 1b D168A; settings: Hepatitis C virus, 72 h, read-out: EC50 1B D168A, transient-transfected replicon genotype 1b D168A resistant variant, 72 h
[11] = transient-transfected replicon genotype 3a wild type
[12] = transient-transfected replicon genotype 1a wild type
[13] = transient-transfected replicon genotype 1b wild type

Structure (SMILES)	EC50 [1]	EC50 [2]	EC50 [3]	EC50 [4]	EC50 [5]	EC50 [6, 11]	EC50 [7, 12]	EC50 [8]	EC50 [9, 13]	EC50 [10]	EC50 [6]	EC50 [7]	EC50 [9]
CC[C@@H]1[C@@H]2CN(C(=O)[C@H](C(C)(C)C)NC(=O)O[C@]3(C)CCC[C@H]3CCCCCc3nc4ccc(OC)cc4nc3O2)[C@@H]1C(=O)N[C@]1(C(=O)NS(=O)(=O)C2CC2)C[C@H]1C(F)F [Example 40, (3aR,7S,10S,11S,12R,24aR)-7-tert-butyl-N-[(1R,2R)-1-[(cyclopropylsulfonyl)carbamoyl]-2-(difluoromethyl)cyclopropyl]-11-ethyl-16-methoxy-3a-methyl-5,8-dioxo-1,2,3,3a,5,6,7,8,11,12,20,21,22,23,24,24a-hexadecahydro-10H-9,12-methanocyclopenta[18,19][1,10,3,6]dioxadiazacyclononadecino[11,12-b]quinoxaline-10-carboxamide]	0.025 µM	0.022 µM	0.048 µM	0.36 µM	0.018 µM	0.156 µM	0.017 µM	0.074 µM	0.0086 µM	0.129 µM			
CC[C@@H]1[C@@H]2CN(C(=O)[C@H](C(C)(C)C)NC(=O)O[C@@H]3C[C@H]3CCCCCc3nc4ccc(OC)cc4nc3O2)[C@@H]1C(=O)N[C@]1(C(=O)NS(=O)(=O)C2(Cl)CC2)C[C@H]1C(F)F [Example 75, (1aR,5S,8S,9S,10R,22aR)-5-tert-butyl-N-[(1R,2R)-1-{[(1-chlorocyclopropyl)sulfonyl]carbamoyl}-2-(difluoromethyl)cyclopropyl]-9-ethyl-14-methoxy-3,6-dioxo-1,1a,3,4,5,6,9,10,18,19,20,21,22,22a-tetradecahydro-8H-7,10-methanocyclopropa[18,19][1,10,3,6]dioxadiazacyclononadecino[11,12-b]quinoxaline-8-carboxamide]	0.0099 µM	0.0064 µM	0.018 µM	0.24 µM	0.01 µM	0.056 µM	0.014 µM	0.045 µM	0.0035 µM	0.051 µM			
CCC[C@@H]1[C@@H]2CN(C(=O)[C@H](C(C)(C)C)NC(=O)O[C@@H]3C[C@H]3CCCCC(F)(F)c3nc4ccc(OC)cc4nc3O2)[C@@H]1C(=O)N[C@]1(C(=O)NS(=O)(=O)C2(C)CC2)C[C@H]1C(F)F [Example 65, (1aR,5S,8S,9S,10R,22aR)-5-tert-butyl-N-[(1R,2R)-2-(difluoromethyl)-1-{[(1-methylcyclopropyl)sulfonyl]carbamoyl}cyclopropyl]-18,18-difluoro-14-methoxy-3,6-dioxo-9-propyl-1,1a,3,4,5,6,9,10,18,19,20,21,22,22a-tetradecahydro-8H-7,10-methanocyclopropa[18,19][1,10,3,6]dioxadiazacyclononadecino[11,12-b]quinoxaline-8-carboxamide]	0.012 µM	0.0084 µM	0.0077 µM	0.03 µM	0.0081 µM			0.0081 µM		0.011 µM	0.017 µM	0.0094 µM	0.0064 µM
CC[C@@H]1[C@@H]2CN(C(=O)[C@H](C(C)(C)C)NC(=O)O[C@@H]3C[C@H]3CCCCC(F)(F)c3nc4ccc(OC)cc4nc3O2)[C@@H]1C(=O)N[C@]1(C(=O)NS(=O)(=O)C2CC2)C[C@H]1CC [Example 34, (1aR,5S,8S,9S,10R,22aR)-5-tert-butyl-N-{(1R,2R)-1-[(cyclopropylsulfonyl)carbamoyl]-2-ethylcyclopropyl}-9-ethyl-18,18-difluoro-14-methoxy-3,6-dioxo-1,1a,3,4,5,6,9,10,18,19,20,21,22,22a-tetradecahydro-8H-7,10-methanocyclopropa[18,19][1,10,3,6]dioxadiazacyclononadecino[11,12-b]quinoxaline-8-carboxamide]	0.012 µM	0.013 µM	0.018 µM	0.322 µM	0.0097 µM	0.046 µM	0.015 µM	0.018 µM	0.009 µM	0.064 µM			
CC[C@@H]1[C@@H]2CN(C(=O)[C@H](C(C)(C)C)NC(=O)O[C@@H]3C[C@H]3CCCCC(F)(F)c3nc4ccc(C#N)cc4nc3O2)[C@@H]1C(=O)N[C@]1(C(=O)NS(=O)(=O)C2(C)CC2)C[C@H]1C(F)F [Example 87, (1aR,5S,8S,9S,10R,22aR)-5-tert-butyl-14-cyano-N-[(1R,2R)-2-(difluoromethyl)-1-{[(1-methylcyclopropyl)sulfonyl]carbamoyl}cyclopropyl]-9-ethyl-18,18-difluoro-3,6-dioxo-1,1a,3,4,5,6,9,10,18,19,20,21,22,22a-tetradecahydro-8H-7,10-methanocyclopropa[18,19][1,10,3,6]dioxadiazacyclononadecino[11,12-b]quinoxaline-8-carboxamide]	0.0048 µM	0.0039 µM	0.0033 µM	0.014 µM	0.0038 µM	0.0077 µM	0.0029 µM	0.0028 µM	0.0013 µM	0.004 µM			
CC[C@@H]1[C@@H]2CN(C(=O)[C@H](C(C)(C)C)NC(=O)O[C@]3(C)CCC[C@H]3CCCCCc3nc4ccc(OC)cc4nc3O2)[C@@H]1C(=O)N[C@]1(C(=O)NS(=O)(=O)C2(C)CC2)C[C@H]1CC(F)F [Example 41, (3aR,7S,10S,11S,12R,24aR)-7-tert-butyl-N-[(1R,2S)-2-(2,2-difluoroethyl)-1-{[(1-methylcyclopropyl)sulfonyl]carbamoyl}cyclopropyl]-11-ethyl-16-methoxy-3a-methyl-5,8-dioxo-1,2,3,3a,5,6,7,8,11,12,20,21,22,23,24,24a-hexadecahydro-10H-9,12-methanocyclopenta[18,19][1,10,3,6]dioxadiazacyclononadecino[11,12-b]quinoxaline-10-carboxamide]	0.135 µM	0.142 µM	0.106 µM	2.61 µM	0.135 µM	0.539 µM	0.164 µM	0.505 µM	0.154 µM	0.715 µM			
C=C[C@@H]1C[C@]1(NC(=O)[C@@H]1[C@H](CC)[C@@H]2CN1C(=O)[C@H](C(C)(C)C)NC(=O)O[C@@H]1C[C@H]1CCCCCc1nc3ccc(OC)cc3nc1O2)C(=O)NS(=O)(=O)C1CC1 [Example 91, (1aR,5S,8S,9S,10R,22aR)-5-tert-butyl-N-{(1R,2S)-1-[(cyclopropylsulfonyl)carbamoyl]-2-ethenylcyclopropyl}-9-ethyl-14-methoxy-3,6-dioxo-1,1a,3,4,5,6,9,10,18,19,20,21,22,22a-tetradecahydro-8H-7,10-methanocyclopropa[18,19][1,10,3,6]dioxadiazacyclononadecino[11,12-b]quinoxaline-8-carboxamide]	0.0024 µM	0.0019 µM	0.004 µM	0.149 µM	0.0024 µM	0.025 µM	0.0023 µM	0.0035 µM	0.0013 µM	0.0092 µM			
COc1ccc2nc3c(nc2c1)O[C@H]1CN(C(=O)[C@H](C(C)(C)C)NC(=O)O[C@@H]2C[C@@H]4C[C@@H]4[C@H]2CCCCC3)[C@H](C(=O)N[C@]2(C(=O)NS(=O)(=O)C3(C)CC3)C[C@H]2C(F)F)[C@@H]1C [Example 49, (1aS,2aR,6S,9S,10S,11R,23aR,23bS)-6-tert-butyl-N-[(1R,2R)-2-(difluoromethyl)-1-{[(1-methylcyclopropyl)sulfonyl]carbamoyl}cyclopropyl]-15-methoxy-10-methyl-4,7-dioxo-1a,2,2a,4,5,6,7,10,11,19,20,21,22,23,23a,23b-hexadecahydro-1H,9H-8,11-methanocyclopropa[4′,5′]cyclopenta[1′,2′:18,19][1,10,3,6]dioxadiazacyclononadecino[11,12-b]quinoxaline-9-carboxamide]	0.0037 µM	0.0041 µM	0.0052 µM	0.02 µM	0.0035 µM			0.0038 µM		0.0042 µM	0.0063 µM	0.0035 µM	0.0028 µM
